Assay [1] in a line: Cytotoxicity against human HBE cells assessed as reduction in cell viability measured after 48 hrs by CCK8 assay. Type of assay: cell-based. Background: Formazan colour is commonly taken as a measure of viable cells.
Another assay concerns BEAS-2B. Kind of assay: Cytotoxicity against human BEAS-2B cells assessed as reduction in cell viability measured after 48 hrs by CCK8 assay. Type of assay: cell-based.
The subject of another assay is NCI-H460. Nature of the assay: Cytotoxicity against human NCI-H460 cells harboring wild type EGFR assessed as reduction in cell viability measured after 48 hrs by CCK8 assay. Type of assay: functional, cell-based. The note with it: NCI-H460, 48 h.
In the next assay the test system is A549. Kind of assay: Cytotoxicity against human A549 cells harboring wild type EGFR assessed as reduction in cell viability measured after 48 hrs by CCK8 assay. Type of assay: functional, cell-based. As to conditions: A549, 48 h.
In the next assay the test system is NCI-H1975. Nature of the assay: Cytotoxicity against human NCI-H1975 cells harboring EGFR L858R/T790M mutant assessed as reduction in cell viability measured after 48 hrs by CCK8 assay. The assay is classed as functional, cell-based. As to conditions: NCI-H1975, 48 h.
The next assay concerns HCC827. Nature of the assay: Cytotoxicity against human HCC827 cells harboring EGFR del E746-A750 mutant assessed as reduction in cell viability measured after 48 hrs by CCK8 assay. The assay is classed as functional, cell-based. The note with it: HCC827, 48 h.
The target in assay [2] is Epidermal growth factor receptor (Homo sapiens, UniProt P00533). Kind of assay: Inhibition of wild type EGFR (unknown origin) at 80 nM pretreated with substrate for 10 mins followed by ATP addition measured after 60 mins by mobility shift assay relative to control.
Assay [3] relates to Epidermal growth factor receptor (Homo sapiens), P00533 [L858R,T790M]. Nature of the assay: Inhibition of […] EGFR L858R/T790M mutant (unknown origin) at 2 nM pretreated with substrate for 10 mins followed by ATP addition measured after 60 mins by mobility shift assay relative to control.
Epidermal growth factor receptor (Homo sapiens), P00533 [L858R,T790M], sequence (P00533 whole entry T790M/L858R, looked up): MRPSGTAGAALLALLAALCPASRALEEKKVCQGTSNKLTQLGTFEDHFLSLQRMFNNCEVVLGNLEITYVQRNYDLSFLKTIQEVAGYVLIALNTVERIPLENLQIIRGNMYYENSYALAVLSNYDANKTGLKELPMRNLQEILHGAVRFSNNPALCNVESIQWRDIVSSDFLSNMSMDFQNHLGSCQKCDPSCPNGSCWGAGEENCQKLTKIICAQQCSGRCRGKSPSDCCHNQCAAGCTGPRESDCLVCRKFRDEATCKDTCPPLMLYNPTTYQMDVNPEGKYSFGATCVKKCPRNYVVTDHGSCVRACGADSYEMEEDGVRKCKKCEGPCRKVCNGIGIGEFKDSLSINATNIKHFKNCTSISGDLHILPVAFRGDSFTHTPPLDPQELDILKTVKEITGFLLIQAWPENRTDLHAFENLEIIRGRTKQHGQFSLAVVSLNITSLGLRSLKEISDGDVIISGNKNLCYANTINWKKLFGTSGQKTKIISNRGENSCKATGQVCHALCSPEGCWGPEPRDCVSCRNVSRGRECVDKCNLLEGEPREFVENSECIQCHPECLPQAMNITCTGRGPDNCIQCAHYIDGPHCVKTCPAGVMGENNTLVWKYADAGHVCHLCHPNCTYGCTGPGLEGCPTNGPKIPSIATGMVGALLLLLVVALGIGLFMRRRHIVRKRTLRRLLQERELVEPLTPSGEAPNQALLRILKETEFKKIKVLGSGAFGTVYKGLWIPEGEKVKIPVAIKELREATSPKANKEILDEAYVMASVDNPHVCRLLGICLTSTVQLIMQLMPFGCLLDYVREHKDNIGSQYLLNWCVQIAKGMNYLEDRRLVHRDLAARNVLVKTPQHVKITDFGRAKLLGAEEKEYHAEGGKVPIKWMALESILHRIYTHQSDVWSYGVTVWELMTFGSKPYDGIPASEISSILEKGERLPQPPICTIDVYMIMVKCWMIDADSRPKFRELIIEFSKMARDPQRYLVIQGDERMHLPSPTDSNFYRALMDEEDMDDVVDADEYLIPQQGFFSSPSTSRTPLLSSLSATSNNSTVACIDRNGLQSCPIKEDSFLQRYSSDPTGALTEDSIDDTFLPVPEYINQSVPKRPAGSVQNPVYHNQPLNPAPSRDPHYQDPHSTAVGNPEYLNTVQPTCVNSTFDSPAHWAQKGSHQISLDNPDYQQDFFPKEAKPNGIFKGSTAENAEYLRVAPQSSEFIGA
The test system of assay [4] is Epidermal growth factor receptor (Homo sapiens), P00533 [UNDEFINED MUTATION]. Kind of assay: Inhibition of […] EGFR Del E746/A750 mutant (unknown origin) at 2 nM pretreated with substrate for 10 mins followed by ATP addition measured after 60 mins by mobility shift assay relative to control.
Assay [5] relates to Epidermal growth factor receptor (Homo sapiens), P00533 [L858R]. Kind of assay: Inhibition of […] EGFR L858R mutant (unknown origin) at 2 nM pretreated with substrate for 10 mins followed by ATP addition measured after 60 mins by mobility shift assay relative to control.
Assay [6] deals with Epidermal growth factor receptor (Homo sapiens), P00533 [T790M]. Kind of assay: Inhibition of […] EGFR T790M mutant (unknown origin) at 2 nM pretreated with substrate for 10 mins followed by ATP addition measured after 60 mins by mobility shift assay relative to control.
Epidermal growth factor receptor (Homo sapiens), P00533 [T790M], sequence (P00533 whole entry T790M): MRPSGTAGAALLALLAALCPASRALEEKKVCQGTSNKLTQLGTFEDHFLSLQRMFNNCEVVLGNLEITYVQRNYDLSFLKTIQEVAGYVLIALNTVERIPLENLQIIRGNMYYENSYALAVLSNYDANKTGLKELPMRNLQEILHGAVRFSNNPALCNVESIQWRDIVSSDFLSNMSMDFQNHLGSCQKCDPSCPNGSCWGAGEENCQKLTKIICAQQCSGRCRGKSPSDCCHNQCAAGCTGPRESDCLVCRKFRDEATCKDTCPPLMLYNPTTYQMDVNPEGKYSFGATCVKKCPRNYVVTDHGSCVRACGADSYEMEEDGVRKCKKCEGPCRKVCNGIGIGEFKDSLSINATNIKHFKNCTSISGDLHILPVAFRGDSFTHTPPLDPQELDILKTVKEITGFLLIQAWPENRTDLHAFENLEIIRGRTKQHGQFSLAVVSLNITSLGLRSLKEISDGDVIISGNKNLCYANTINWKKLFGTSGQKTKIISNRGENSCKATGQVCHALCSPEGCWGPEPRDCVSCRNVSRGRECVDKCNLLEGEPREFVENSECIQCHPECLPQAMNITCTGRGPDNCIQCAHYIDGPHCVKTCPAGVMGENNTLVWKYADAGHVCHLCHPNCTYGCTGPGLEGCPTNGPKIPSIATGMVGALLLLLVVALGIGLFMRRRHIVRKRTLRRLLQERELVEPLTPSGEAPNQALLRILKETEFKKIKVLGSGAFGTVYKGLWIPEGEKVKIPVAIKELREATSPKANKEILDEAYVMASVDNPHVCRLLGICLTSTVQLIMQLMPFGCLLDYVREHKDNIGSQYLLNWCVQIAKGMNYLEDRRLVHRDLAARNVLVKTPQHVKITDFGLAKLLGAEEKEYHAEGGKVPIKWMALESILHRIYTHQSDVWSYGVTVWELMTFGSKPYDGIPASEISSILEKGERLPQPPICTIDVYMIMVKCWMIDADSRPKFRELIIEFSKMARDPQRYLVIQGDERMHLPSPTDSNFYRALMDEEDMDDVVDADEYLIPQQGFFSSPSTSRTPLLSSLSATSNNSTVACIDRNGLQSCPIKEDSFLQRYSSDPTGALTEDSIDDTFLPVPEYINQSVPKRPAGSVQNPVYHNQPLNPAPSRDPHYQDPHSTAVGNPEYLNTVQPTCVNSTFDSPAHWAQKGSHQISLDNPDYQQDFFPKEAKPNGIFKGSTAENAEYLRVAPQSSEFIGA
The subject of assay [7] is Epidermal growth factor receptor (Homo sapiens), P00533 [C797S]. Kind of assay: Inhibition of […] EGFR C797S mutant (unknown origin) at 2 nM pretreated with substrate for 10 mins followed by ATP addition measured after 60 mins by mobility shift assay relative to control.
Assay [8] deals with Epidermal growth factor receptor (Homo sapiens), P00533 [L858R,T790M,C797S]. Kind of assay: Inhibition of […] EGFR L858R/T790M/C797S mutant (unknown origin) at 2 nM pretreated with substrate for 10 mins followed by ATP addition measured after 60 mins by mobility shift assay relative to control.
Epidermal growth factor receptor (Homo sapiens), P00533 [L858R,T790M,C797S], sequence (P00533 whole entry T790M/C797S/L858R): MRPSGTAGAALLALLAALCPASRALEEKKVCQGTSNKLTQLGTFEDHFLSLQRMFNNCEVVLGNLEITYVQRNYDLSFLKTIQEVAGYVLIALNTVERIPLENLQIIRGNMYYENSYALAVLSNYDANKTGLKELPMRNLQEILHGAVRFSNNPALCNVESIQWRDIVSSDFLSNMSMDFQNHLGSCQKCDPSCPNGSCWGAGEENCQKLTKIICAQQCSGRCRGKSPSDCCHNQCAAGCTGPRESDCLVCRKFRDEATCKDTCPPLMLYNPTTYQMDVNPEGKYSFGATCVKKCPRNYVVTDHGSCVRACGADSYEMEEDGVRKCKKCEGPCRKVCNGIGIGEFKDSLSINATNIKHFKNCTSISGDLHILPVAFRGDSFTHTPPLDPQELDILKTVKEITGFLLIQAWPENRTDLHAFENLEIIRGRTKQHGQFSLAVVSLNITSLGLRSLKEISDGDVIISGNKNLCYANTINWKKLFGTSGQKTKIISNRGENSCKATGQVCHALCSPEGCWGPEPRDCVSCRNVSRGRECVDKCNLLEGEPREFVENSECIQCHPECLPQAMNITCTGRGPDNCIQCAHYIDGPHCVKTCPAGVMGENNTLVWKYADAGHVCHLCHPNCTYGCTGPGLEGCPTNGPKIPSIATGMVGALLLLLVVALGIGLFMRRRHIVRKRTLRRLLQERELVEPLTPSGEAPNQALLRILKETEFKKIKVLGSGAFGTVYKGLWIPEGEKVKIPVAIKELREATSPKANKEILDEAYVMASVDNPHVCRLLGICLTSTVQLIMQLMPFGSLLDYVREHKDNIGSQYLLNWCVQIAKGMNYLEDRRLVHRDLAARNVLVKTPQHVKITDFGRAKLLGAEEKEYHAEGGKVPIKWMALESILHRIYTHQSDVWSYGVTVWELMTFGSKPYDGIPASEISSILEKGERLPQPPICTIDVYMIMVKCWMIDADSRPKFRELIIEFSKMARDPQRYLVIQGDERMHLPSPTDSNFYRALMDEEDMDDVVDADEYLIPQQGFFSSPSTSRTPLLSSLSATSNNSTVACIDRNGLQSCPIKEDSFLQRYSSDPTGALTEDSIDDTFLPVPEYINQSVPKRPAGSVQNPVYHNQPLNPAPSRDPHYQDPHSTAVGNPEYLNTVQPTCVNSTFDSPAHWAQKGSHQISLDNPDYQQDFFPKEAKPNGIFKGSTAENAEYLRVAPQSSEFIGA

Epidermal growth factor receptor (Homo sapiens), P00533 [C797S], sequence (P00533 whole entry C797S): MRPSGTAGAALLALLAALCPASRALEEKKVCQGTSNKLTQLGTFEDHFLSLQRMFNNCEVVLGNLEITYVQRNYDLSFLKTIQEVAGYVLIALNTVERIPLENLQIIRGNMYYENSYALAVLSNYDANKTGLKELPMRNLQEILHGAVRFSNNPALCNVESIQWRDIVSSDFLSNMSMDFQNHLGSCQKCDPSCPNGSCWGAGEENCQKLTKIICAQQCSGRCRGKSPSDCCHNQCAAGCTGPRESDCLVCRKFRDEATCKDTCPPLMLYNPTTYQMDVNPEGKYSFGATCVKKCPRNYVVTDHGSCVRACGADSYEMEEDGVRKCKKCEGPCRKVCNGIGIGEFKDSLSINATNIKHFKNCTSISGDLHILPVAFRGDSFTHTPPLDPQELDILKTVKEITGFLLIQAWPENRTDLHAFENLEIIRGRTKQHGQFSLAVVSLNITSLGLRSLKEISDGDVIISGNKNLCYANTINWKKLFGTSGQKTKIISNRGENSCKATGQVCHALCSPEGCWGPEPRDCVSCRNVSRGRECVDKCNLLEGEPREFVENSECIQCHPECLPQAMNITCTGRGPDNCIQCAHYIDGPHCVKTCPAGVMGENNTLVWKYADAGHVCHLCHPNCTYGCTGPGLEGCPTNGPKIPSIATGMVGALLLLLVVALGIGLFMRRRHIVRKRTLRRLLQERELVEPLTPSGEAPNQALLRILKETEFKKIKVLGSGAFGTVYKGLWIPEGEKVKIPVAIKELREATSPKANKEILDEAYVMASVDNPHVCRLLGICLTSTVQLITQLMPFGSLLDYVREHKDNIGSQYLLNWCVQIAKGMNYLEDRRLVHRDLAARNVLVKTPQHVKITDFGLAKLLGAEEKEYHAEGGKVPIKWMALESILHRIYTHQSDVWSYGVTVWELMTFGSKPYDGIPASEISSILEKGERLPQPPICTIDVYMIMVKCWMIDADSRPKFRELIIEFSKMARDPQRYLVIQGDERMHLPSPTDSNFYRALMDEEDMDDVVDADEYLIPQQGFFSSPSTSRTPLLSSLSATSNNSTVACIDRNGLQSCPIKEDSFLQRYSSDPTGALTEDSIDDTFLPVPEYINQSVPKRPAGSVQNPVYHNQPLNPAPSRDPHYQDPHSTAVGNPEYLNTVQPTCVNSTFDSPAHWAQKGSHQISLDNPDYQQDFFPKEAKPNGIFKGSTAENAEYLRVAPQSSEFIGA

The term IC50 denotes the concentration that inhibits the measured activity by half. For the molecule `C=CC(=O)Nc1cccc(Oc2nc(Nc3ccc(N4CCN(C)CC4)cc3)nc3[nH]ccc23)c1`, the IC50 in assay [1] is 28.1 µM; in the assay with BEAS-2B, 23.8 µM; with NCI-H460 it was 36 µM; in the assay with A549, 9.92 µM; in the assay with NCI-H1975, 22 µM; with HCC827, 0.24 µM.

Broadly, the inhibition is how much of the control response was suppressed. For `C=CC(=O)Nc1cccc(Oc2nc(Nc3ccc(N4CCN(C)CC4)c(OC)c3)nc3[nH]ccc23)c1`, the IC50 in assay [1] turned out to be 12.5 µM; with BEAS-2B, 9.89 µM; in the assay with NCI-H460 it was 33.6 µM; in the assay on A549, 20.6 µM; in the assay on NCI-H1975, 22.4 µM; in the assay with HCC827, 0.26 µM. Further, the inhibition in assay [2] stood at 32%; in assay [3], 42%; in assay [4], 25%; in [5] it was 31%; in assay [6], 97%; in assay [7] it was 13%. For the same molecule, the inhibition in assay [8] stood at 7.8%.

With `C=CC(=O)Nc1cccc(Oc2nc(Nc3ccc(N4CCN(C)CC4)c(N)c3)nc3c2ccn3COC(=O)C(C)(C)C)c1`, the IC50 turned out to be 9.58 µM in [1]; 9.54 µM in the assay with BEAS-2B; 7.65 µM in the assay on NCI-H460; 10.8 µM with A549; 42 µM in the assay on NCI-H1975; 0.33 µM in the assay on HCC827. The inhibition in assay [2] was found to be 4.5%; in assay [3], 2.4%; in assay [4] it was 11%; in assay [5], 9.7%; in assay [6] it was 7.3%; in assay [7], 2.2%. Also, the inhibition in assay [8] amounted to 3.6%.

Turning to `C=CC(=O)Nc1cccc(Oc2nc(Nc3ccc(N4CCN(C)CC4)c([N+](=O)[O-])c3)nc3c2ccn3COC(=O)C(C)(C)C)c1`, the IC50 in assay [1] was found to be 3.61 µM; with BEAS-2B it was 5.73 µM; in the assay on NCI-H460, 4.68 µM; in the assay with A549, 3.1 µM; in the assay on NCI-H1975, 4.12 µM; with HCC827 it was 0.44 µM. For the same molecule, the inhibition in [2] stood at 4.7%; in assay [3], 3.5%; in [4] it was 0.41%; in assay [5] it was 13%; in assay [6] it was 7.9%; in assay [7] it was 6.3%. In addition, in assay [8], the inhibition was found to be 8.4%.

As to `C=CC(=O)Nc1cccc(Oc2nc(Nc3ccc(N4CCN(C)CC4)c(Cl)c3)nc3[nH]ccc23)c1`, the IC50 is 8.73 µM in [1]; 3.8 µM with BEAS-2B; 4.86 µM with NCI-H460; 1.68 µM in the assay on A549; 1.67 µM with NCI-H1975; 0.12 µM with HCC827. Further, the inhibition in [2] came out at 86%; in assay [3] it was 92%; in assay [4] it was 44%; in assay [5], 41%; in assay [6], 98%; in [7], 4.8%. The inhibition in [8] amounted to 9.2%.

The record behind these values is ChEMBL document CHEMBL4828722, “The synthesis and bioactivity of pyrrolo[2,3-d]pyrimidine derivatives as tyrosine kinase inhibitors for NSCLC cells with EGFR mutations” (Eur J Med Chem, 2021).
